# Assay results reported in US8338411B2, “Compounds” (Sanofi, priority 2007, dated 2012).
# What was measured:
# Solubility = assay type: physicochemical
# [1] = biological target: T1, human adenosine A3 receptor (Homo sapiens, UniProt P0DMS8); assay: Human adenosine A3 receptor binding ([125I]AB-MECA, CHO-hA3 membranes); conditions: CHO-hA3 membrane, 0.5 nM [125I]AB-MECA
# T1 construct: host or cells: CHO cells (CHO-hA3), membrane preparation
# T1 sequence (P0DMS8 1-318): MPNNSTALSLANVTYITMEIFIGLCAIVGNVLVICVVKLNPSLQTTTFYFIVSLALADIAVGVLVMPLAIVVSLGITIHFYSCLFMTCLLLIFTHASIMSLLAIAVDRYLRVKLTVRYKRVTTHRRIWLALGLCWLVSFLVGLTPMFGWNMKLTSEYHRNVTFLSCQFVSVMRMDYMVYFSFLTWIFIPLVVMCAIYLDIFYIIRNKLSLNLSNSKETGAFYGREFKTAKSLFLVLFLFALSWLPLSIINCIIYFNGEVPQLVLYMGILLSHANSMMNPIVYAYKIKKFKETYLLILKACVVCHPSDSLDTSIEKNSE
# Procedure: Human Adenosine A3 Receptor Binding
# Preparing membrane suspension: ovarium cells of cloned […] hamster expressing human A3 receptor (further: CHO-hA3) are appropriately cultured. Achieving confluent cell layer, the cultivating liquid is removed from the cells by washing them with 37° C. PBS, then the cell are suspended in ice cold PBS, washed 3 times with PBS, centrifuged (1000×g 10 minutes) (Sigma 3K30) and homogenated using teflon homogenizer (B. Braun Potter S) at 1500/min rotation speed, for 15 sec. in the following buffer: 50 mM Tris, 10 mM MgCl2, 1 mM EDTA, pH 8.0. The homogenate is centrifuged (43.000 g, 10 min). The precipitate is suspended in the above buffer, protein concentration 0.1 mg/ml (Bradford method). Aliquots of the membrane preparatum are store at −80° C. hA3-CHO membrane preparation from Perkin Elmer was used alternatively.
# Binding protocol: incubate CHO-hA3 membrane preparation (2 μg protein content) in the presence of the test material and 0.5 nM [^125I]AB-MECA (4-amino-3-iodo-benzyl-5′-N-methylcarboxamide-adenosine) (100.000 cpm) in incubation buffer (50 mM Tris, 10 mM MgCl2, 1 mM EDTA, 3 U/mL adenosine deaminase, pH 8.0). Define the non-specific radioligand binding in the presence of 100 μM R-PIA (N^6[L-2-phenylisopropyl]adenosine). Total volume of the reaction is 50 μL for 60 min at room temperature. […] Detect the radioactivity in gamma-counter (1470 Wizard, Wallac). […]
# Based on the radioisotope saturation curves using Scatchard analysis (G. Scatchard, Ann. N.Y. Acad. Sci. 51:660, 1949) the dissociation constant (Kd) of the radioligand [^125I]AB-MECA on the CHO-hA3 membrane preparate is determined. From the Kd values, applying the Cheng-Prusoff equation (Y. J. Cheng and W. H. Prusoff, Biochem. Pharmacol. 22:3099, 1973) the affinity constants (Ki) of the test compounds are calculated from their IC50 values.
# [2] = test system: Ovalbumin induced cell migration; assay: Allergic mouse model (ovalbumin induced cell migration); assay type: in vivo; conditions: % inhibition (full), p.o. mice 24 h, 10 mg/kg CMC
# Procedure: Male BalbC mice of 20-25 g body weight are used for the experiments. The animals are first allergized with ovalbumin, then three weeks after the first ovalbumin injection they are involved into the experiment. On the day of the experiment the mice are treated (per os) with the experimental material (or with the vehicle containing no active ingredient), then after a suitable waiting period they are narcotized. After surgical opening of the trachea, 10 microliter of 1% ovalbumin solution is injected into the trachea.
# The control group receives vehicle (physiological salt solution) into the trachea. After surgical closing of the trachea and treatment of the wound, the animals are separated and kept under their usual life conditions for 24 h.
# After 24 hours the animals are over narcotized, the trachea is opened again and the lung is washed with buffer solution. The buffer solution is centrifuged, the cell sediment is resuspended again, and then the cells are counted. The total cell number is determined and the different leukocytes are sorted on the bases of the morphology. To determine the effectivity of the experimental material, the inhibition % is calculated in comparison to the control group. To determine the significance of the effect, statistical evaluation is carried out.
SMILES,"solubility (Solubility; pH 1, simulated gastric fluid) [µg/mL]","solubility (Solubility; pH 6.5, aqueous buffer) [µg/mL]","solubility (Solubility; pH 7.5, aqueous buffer) [µg/mL]",IC50 [1] [nM],Inhibition of cell migration [2] [%]
"COc1cccc(-c2nc3c(C#N)c(NCc4ccccc4)c4cc(N5CCOCC5)ccc4n3n2)c1 [Example 1, 2-(3-methoxyphenyl)-7-(morpholin-4-yl)-9-benzylamino-10-cyano-s-triazolo[1,5-a]quinoline]",500,0.2,2,38,81
CN1CCN(c2ccc3c(c2)c(NCc2ccccc2)c(C#N)c2nc(-c4ccccc4)nn23)CC1 [Example 17],3000,0.5,5,7.7,88
CN1CCN(c2ccc3c(c2)c(NCc2ccccc2)c(C#N)c2nc(-c4ccc(F)cc4)nn23)CC1 [Example 18],2500,0.5,13,11,57
